Laboratory results from patent US20030229053A1, “Compounds and methods for the treatment or prevention of flavivirus infections” (Shire BioChem Inc., priority 2001, published 2003).

Each compound was assayed against HCV NS5B RNA-dependent RNA polymerase (Hepatitis C virus genotype 1b, UniProt P26663) (assay: In vitro RNA-dependent RNA polymerase assay (Assay 1), polyA/oligo dT, TCA precipitation). Details: not given.
Assay type: biochemical
Protocol: Purification of Recombinant NS5B Using Fast Protein Liquid Chromatography (FPLC):
Soluble NS5B protein in the S3 fraction was diluted to lower the NaCl concentration to 300 mM, then it incubated batchwise with DEAE sepharose beads (Amersham-Pharmacia) for 2 hrs at 4° C., as described by Behrens et al. (1996). Unbound material was cleared by centrifugation for 15 min at 4° C., at 25,000 rpm using a SW41 rotor (Beckman). The supernatant was further diluted to lower the NaCl concentration to 200 mM and subsequently loaded, with a flow rate of 1 ml/min, on a 5 ml HiTrap® heparin column (Amersham-Pharmacia) connected to an FPLC® system (Amersham-Pharmacia). Bound proteins were eluted in 1 ml fractions, using a continuous NaCl gradient of 0.2 to 1 M, over a 25 ml volume. NS5B-containing fractions were identified by sodium dodecyl sulfate polyacrylamide gel electrophoresis (SDS-PAGE), followed by western blotting using the anti-NS5B antiserum at a dilution of 1:2000. Positive fractions were pooled and the elution buffer was exchanged against a 50 mM NaPO4 pH 7.0, 20% glycerol, 0.5% triton X-100 and 10 mM DTT, using a PD-10 column (Amersham-Pharmacia). The sample was then loaded onto a 1 ml HiTrap® SP column (Amersham-Pharmacia), with a flow rate of 0.1 ml/min. Bound proteins were eluted using a continuous 0 to 1 M NaCl gradient over a 15 ml volume. Eluted fractions were analyzed by SDS-PAGE and western blotting. Alternatively, proteins were visualized, following SDS-PAGE, by silver staining using the Silver Stain Plus kit (BioRad) as described by the manufacturer. […]
In vitro RNA-dependent RNA Polymerase Assays Used to Evaluate Biaryl Analogues (Assay 1):
RdRp assays were conducted using the homopolymeric template/primer polyA/oligo dT. All RdRp reactions were performed in a total volume of 50 μl, and in a basic buffer consisting of 20 mM Tris-HCl pH 7.5, 1 mM DTT, 50 mM NaCl, 5 mM MgCl2, 0.5 μCi […] (3000 Ci/mmol), 15 μM cold UTP and 20 U RNasin (Promega). Standard HCV RdRp reactions contained 200 ng of purified NS5B protein. PolyA RNAs (Amersham-Pharmacia) was resuspended at 400 ng/μl. The primer oligodT15 (Canadian life technologies) was diluted to a concentration of […] (7.6 ng/μl). Templates and primers were mixed volume to volume, denatured at 95° C. for 5 min and annealed at 37° C. for 10 min. Following a two hour incubation at 22° C., reactions were stopped by the addition of 100 μg of sonicated salmon sperm DNA (Life Technologies) and 1 ml of 10% trichloroacetic acid-0.5% tetrasodium pyrophosphate (TCA-PPi). Nucleic acids were precipitated at 4° C. for 30 min after which samples were filtered on GF/C glass microfiber filters (Millipore). Membranes were subsequently washed with 25 ml of a 1% TCA-0.1% PPi solution, then air dried. Incorporated radioactivity was quantified using a liquid scintillation counter (1450-Microbeta, Wallac). Results are shown in Table 1, in the column indicated as Assay 1.

HCV NS5B RNA-dependent RNA polymerase, sequence (P26663 2420-3010 limits assumed): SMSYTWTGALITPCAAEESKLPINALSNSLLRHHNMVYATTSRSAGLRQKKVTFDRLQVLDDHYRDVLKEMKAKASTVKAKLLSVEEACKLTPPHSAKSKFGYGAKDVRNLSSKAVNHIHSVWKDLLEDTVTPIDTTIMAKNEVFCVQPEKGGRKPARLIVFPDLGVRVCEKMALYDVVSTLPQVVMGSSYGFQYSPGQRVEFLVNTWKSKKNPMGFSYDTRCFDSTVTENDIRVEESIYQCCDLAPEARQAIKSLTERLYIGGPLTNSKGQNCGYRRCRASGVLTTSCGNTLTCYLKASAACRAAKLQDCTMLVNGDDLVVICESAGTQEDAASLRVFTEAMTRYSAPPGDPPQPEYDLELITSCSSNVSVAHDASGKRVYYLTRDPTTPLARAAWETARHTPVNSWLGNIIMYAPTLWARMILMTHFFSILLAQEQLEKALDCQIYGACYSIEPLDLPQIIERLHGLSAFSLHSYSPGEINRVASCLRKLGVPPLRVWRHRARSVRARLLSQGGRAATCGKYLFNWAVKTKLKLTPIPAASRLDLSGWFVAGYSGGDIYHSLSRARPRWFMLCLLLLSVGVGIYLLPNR

SMILES | IC50 [µM]
O=C(O)[C@H](Cc1ccccc1)N(Cc1cccc(Br)c1)C(=O)c1ccc(Cl)cc1Cl [compound #9, (2s)-2-[(3-Bromo-benzyl)-(2,4-dichloro-benzoyl)-amino]-3-phenyl-propionic acid] | < 5
O=C(O)[C@H](Cc1ccccc1)N(Cc1cccc(Br)c1)C(=O)c1ccc(Cl)cc1 [compound #15, (2s)-2-[(3-Bromo-benzyl)-(4-chloro-benzoyl)-amino]-3-phenyl-propionic acid] | 5 to 20

Same assay, conditions: polyA/oligo dT template/primer, 200 ng NS5B, 2 h at 22° C.; read-out: RNA pol Assay 1 IC50 (μm)

IC50 [µM] | SMILES
< 5 | O=C(O)C(Cc1ccccc1)N(Cc1ccc(-c2cc3ccccc3o2)cc1)C(=O)c1ccc(Cl)cc1Cl (stereo in doubt) [compound #4, (2s)-2-[(4-Benzofuran-2-yl-benzyl)-(2,4-dichloro-benzoyl)-amino]-3-phenyl-propionic acid]
< 5 | COc1cc(C)c(S(=O)(=O)N(Cc2ccc(-c3cc4ccccc4o3)cc2)C(Cc2ccccc2)C(=O)O)c(C)c1C (stereo in doubt) [compound #6, (2s)-2-[(4-Benzofuran-2-yl-benzyl)-(4-methoxy-2,3,6-trimethyl-benzenesulfonyl)-amino]-3-phenyl-propionic acid]
< 5 | O=C(O)[C@H](Cc1ccccc1)N(Cc1ccc(-c2nccs2)cc1)C(=O)c1ccc(Cl)cc1Cl [compound #2, (2s)-2-[(2,4-Dichloro-benzoyl)-(4-thiazol-2-yl-benzyl)-amino]-3-phenyl-propionic acid]
< 5 | O=C(O)[C@H](Cc1ccccc1)N(Cc1ccc(Br)cc1)C(=O)c1ccc(Cl)cc1Cl [compound #3, (2s)-2-[(4-Bromo-benzyl)-(2,4-dichloro-benzoyl)-amino]-3-phenyl-propionic acid]
< 5 | COc1cc(C)c(S(=O)(=O)N(Cc2ccc(-c3cc4ccccc4o3)cc2)[C@@H](Cc2ccccc2)C(=O)O)c(C)c1C [compound #5, (2s)-2-[(4-Benzofuran-2-yl-benzyl) -(4-methoxy-2,3,6-trimethyl-benzenesulfonyl)-amino]-3-phenyl-propionic acid]
< 5 | COc1cc(C)c(S(=O)(=O)N(Cc2cccc(-c3cc4ccccc4o3)c2)[C@@H](Cc2ccccc2)C(=O)O)c(C)c1C [compound #7, (2s)-2-[(3-Benzofuran-2-yl-benzyl)-(4-methoxy-2,3,6-trimethyl-benzenesulfonyl)-amino]-3-phenyl-propionic acid]
> 20 | O=C(O)[C@H](Cc1ccccc1)N(Cc1cccc(Br)c1)C(=O)c1ccccc1Cl [compound #10, (2s)-2-[(3-Bromo-benzyl)-(2-chloro-benzoyl)-amino]-3-phenyl-propionic acid]
5 to 20 | O=C(O)[C@H](Cc1ccccc1)N(Cc1cccc(-c2cc3ccccc3o2)c1)C(=O)c1ccc(Cl)cc1Cl [compound #11, (2s)-2-[(3-Benzofuran-2-yl-benzyl)-(2,4-dichloro-benzoyl)-amino]-3-phenyl-propionic acid]
5 to 20 | O=C(O)[C@H](Cc1ccccc1)N(Cc1ccc(I)cc1)C(=O)c1ccc(Cl)cc1Cl [compound #12, (2s)-2-[(2,4-Dichloro-benzoyl)-(4-iodo-benzyl)-amino]-3-phenyl-propionic acid]
> 20 | O=C(O)[C@H](Cc1ccccc1)N(Cc1cccc(Br)c1)C(=O)c1ccc(Cl)c(Cl)c1 [compound #19, (2s)-2-[(3-Bromo-benzyl)-(3,4-dichloro-benzoyl)-amino]-3-phenyl-propionic acid]
5 to 20 | O=C(O)[C@H](Cc1cn(Cc2ccccc2)cn1)N(Cc1cccc(Br)c1)C(=O)c1ccc(Cl)cc1Cl [compound #21, (2s)-3-(1-Benzyl-1h-imidazol-4-yl)-2-[(3-bromo-benzyl)-(2,4-dichloro-benzoyl)-amino]-propionic acid]
5 to 20 | O=C(O)[C@H](Cc1ccccc1)N(Cc1cccc(Br)c1)C(=O)Cc1ccc(Cl)cc1Cl [compound #22, (2s)-2-{(3-Bromo-benzyl)-[(2,4-dichloro-phenyl)-acetyl]-amino}-3-phenyl-propionic acid]

The remaining lines, values behind:

SMILES | IC50 [µM]
C=CCN(C(=O)c1ccc(Cl)cc1I)C(Cc1ccccc1)C(=O)O (stereo not shown) [Compound #27, 2-[Allyl-(4-chloro-2-iodo-benzoyl)-amino]-3-phenyl-propionic acid] | 5 to 20
O=C(O)CC(c1cccs1)N(Cc1ccc(-c2cccs2)cc1)C(=O)Nc1cc(Cl)nc(Cl)c1 (stereo not shown) [compound #1, 3-[3-(2,6-Dichloro-pyridin-4-yl)-1-(4-thiophen-2-yl-benzyl)-ureido]-3-thiophen-2-yl-propionic acid] | 5 to 20
CCOC(=O)CC(c1cccs1)N(Cc1ccc(I)cc1)S(=O)(=O)c1c(C)cc(OC)c(C)c1C (stereo not shown) [compound #8, 3-[(4-Iodo-benzyl)-(4-methoxy-2,3,6-trimethyl-benzenesulfonyl)-amino]-3-thiophen-2-yl-propionic acid ethyl ester] | 5 to 20
COc1cc(C)c(S(=O)(=O)N(Cc2cccc(I)c2)[C@@H](Cc2ccccc2)C(=O)O)c(C)c1C [compound #13, (2s)-2-[(3-Iodo-benzyl)-(4-methoxy-2,3,6-trimethyl-benzenesulfonyl)-amino]-3-phenyl-propionic acid] | 5 to 20
COc1cc(C)c(S(=O)(=O)N(Cc2ccc(Br)cc2)[C@@H](Cc2ccccc2)C(=O)O)c(C)c1C [compound #14, (2s)-2-[(4-Bromo-benzyl)-(4-methoxy-2,3,6-trimethyl-benzenesulfonyl)-amino]-3-phenyl-propionic acid] | 5 to 20
COc1cc(C)c(S(=O)(=O)N(Cc2ccc(I)cc2)[C@@H](Cc2ccccc2)C(=O)O)c(C)c1C [compound #16, (2s)-2-[(4-Iodo-benzyl)-(4-methoxy-2,3,6-trimethyl-benzenesulfonyl)-amino]-3-phenyl-propionic acid] | 5 to 20
COc1cc(C)c(S(=O)(=O)N(Cc2cccc(Br)c2)[C@@H](Cc2ccccc2)C(=O)O)c(C)c1C [compound #17, (2s)-2-[(3-Bromo-benzyl)-(4-methoxy-2,3,6-trimethyl-benzenesulfonyl)-amino]-3-phenyl-propionic acid] | 5 to 20
COC(=O)c1ccc(-c2ccc(CN([C@@H](Cc3ccccc3)C(=O)O)S(=O)(=O)c3c(C)cc(OC)c(C)c3C)cc2)o1 [compound #18, (2s)-5-(4-{[(1s-1-Carboxy-2-phenyl-ethyl)-(4-methoxy-2,3,6-trimethyl-benzenesulfonyl)-amino]-methyl}-phenyl)-furan-2-carboxylic acid methyl ester] | > 20
O=C(O)[C@H](Cc1ccccc1)N(Cc1cccc(Br)c1)S(=O)(=O)c1ccc(Cl)cc1Cl [compound #20, (2s)-2-[(3-Bromo-benzyl)-(2,4-dichloro-benzenesulfonyl)-amino]-3-phenyl-propionic acid] | > 20
COC(=O)c1ccc(-c2ccc(CN([C@@H](Cc3ccccc3)C(=O)O)S(=O)(=O)c3c(C)cc(OC)c(C)c3C)cc2)s1 [compound #23, (2s)-5-(4-{[(1s-1-Carboxy-2-phenyl-ethyl)-(4-methoxy-2,3,6-trimethyl-benzenesulfonyl)-amino]-methyl}-phenyl)-thiophene-2-carboxylic acid methyl ester] | > 20
COc1cc(C)c(S(=O)(=O)N(Cc2ccccc2Br)[C@@H](Cc2ccccc2)C(=O)O)c(C)c1C [compound #24, (2s)-2-[(2-Bromo-benzyl)-(4-methoxy-2,3,6-trimethyl-benzenesulfonyl)-amino]-3-phenyl-propionic acid] | 5 to 20
